Source: patent publication US20250230155A1 (Vanderbilt University, priority 2021, published 2025)

Target: T1, human mAChR M4 (Homo sapiens, UniProt P08173)
T1 construct: expressed in transfected cells
T1 sequence (P08173 1-479): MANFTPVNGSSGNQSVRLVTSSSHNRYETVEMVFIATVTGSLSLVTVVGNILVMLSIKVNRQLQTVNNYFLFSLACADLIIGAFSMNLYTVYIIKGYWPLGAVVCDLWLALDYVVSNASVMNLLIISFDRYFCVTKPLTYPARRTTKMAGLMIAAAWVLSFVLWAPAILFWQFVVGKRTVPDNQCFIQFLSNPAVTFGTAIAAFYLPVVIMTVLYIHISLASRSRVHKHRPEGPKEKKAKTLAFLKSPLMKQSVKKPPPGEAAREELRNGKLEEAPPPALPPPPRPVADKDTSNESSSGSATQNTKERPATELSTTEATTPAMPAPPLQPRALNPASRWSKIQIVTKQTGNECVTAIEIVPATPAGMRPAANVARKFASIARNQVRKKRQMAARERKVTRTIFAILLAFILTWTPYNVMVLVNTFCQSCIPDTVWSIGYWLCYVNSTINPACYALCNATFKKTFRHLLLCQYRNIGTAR
Experiment: mAChR M4 cell-based functional assay (calcium mobilization, CHO-K1 hM4-Gqi5 cells)
Settings: for Emax at 30 µM: CHO-K1, % ACh maximum at 30 μM, human M4; for EC50: positive allosteric modulator activity, increase in the EC20 acetylcholine response, CHO-K1 hM4-Gqi5 cells, read-out: Human M4 EC50
How it was run: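 CHO-K1 cells stably expressing human M4 with chimeric Gqi5, loaded with Fluo-4 AM; compounds given as 11-point 1:3 curves and calcium flux read on FDSS at 1 Hz. Acetylcholine EC20 added at 144 s, EC80 at 230 s; agonist, PAM (EC20 potentiation) and antagonist (EC80 inhibition) EC50/Emax from four-parameter fits.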

**Q.** With Cc1cc2c(nc1N1CCc3ncc(C(F)(F)F)cc3C1)OCCN(Cc1ccccc1)C2=O [Example 592, 4-benzyl-7-methyl-8-(3-(trifluoromethyl)-7,8-dihydro-1,6-naphthyridin-6(5H)-yl)-3,4-dihydropyrido[3,2-f][1,4]oxazepin-5(2H)-one] as the molecule, how does the Emax at 30 µM read?
**A.** 38%

**Q.** And the EC50?
**A.** 292 nM

**Q.** With Cc1nc(C)c(C)c(N2CCc3ncc(Oc4cccc(F)c4F)cc3C2)n1 [compound 261, 3-(2,3-difluorophenoxy)-6-(2,5,6-trimethylpyrimidin-4-yl)-5,6,7,8-tetrahydro-1,6-naphthyridine] as the molecule, how does the Emax at 30 µM read?
**A.** 72%

**Q.** And the EC50?
**A.** 358 nM

**Q.** Which Emax at 30 µM does the source give for Cc1cc(C#N)cnc1N1CCc2ncc(N3CCC(C(F)(F)F)n4nccc43)cc2C1 (stereo not shown) [Example 359, 5-methyl-6-(3-(7-(trifluoromethyl)-6,7-dihydropyrazolo[1,5-a]pyrimidin-4(5H)-yl)-7,8-dihydro-1,6-naphthyridin-6(5H)-yl)nicotinonitrile] here?
**A.** 120%

**Q.** What about the EC50 of the same molecule?
**A.** 472 nM

**Q.** Which Emax at 30 µM does the source give for Cc1nc(Cl)c(C)c(N2CCc3ncc(Oc4cccc(F)c4)cc3C2)n1 [compound 203, 6-(6-chloro-2,5-dimethyl-pyrimidin-4-yl)-3-(3-fluorophenoxy)-7,8-dihydro-5H-1,6-naphthyridine] here?
**A.** 86%

**Q.** What about the EC50 of the same molecule?
**A.** 647 nM

**Q.** Which results are given for Cc1nc(Cl)c(C)c(N2CCc3ncc(-c4c(C)nn(C)c4C)cc3C2)n1 [compound 193, 6-(6-chloro-2,5-dimethyl-pyrimidin-4-yl)-3-(1,3,5-trimethylpyrazol-4-yl)-7,8-dihydro-5H-1,6-naphthyridine]?
**A.** Emax at 30 µM: 82%; EC50: 605 nM

**Q.** Which Emax at 30 µM does the source give for Cc1nn(C)c(C)c1-c1cnc2c(c1)CN(c1nnc(C#N)c(C)c1C)CC2 [Example 296, 4,5-dimethyl-6-(3-(1,3,5-trimethyl-1H-pyrazol-4-yl)-7,8-dihydro-1,6-naphthyridin-6(5H)-yl)pyridazine-3-carbonitrile] here?
**A.** 101%

**Q.** And the EC50?
**A.** 191 nM

**Q.** Which results are given for Cc1cc(C(=O)N2CCCC2)nnc1N1CCc2ncc(CC(F)(F)F)cc2C1 [Example 582, (5-methyl-6-(3-(2,2,2-trifluoroethyl)-7,8-dihydro-1,6-naphthyridin-6(5H)-yl)pyridazin-3-yl)(pyrrolidin-1-yl)methanone]?
**A.** Emax at 30 µM: 76%; EC50: 1910 nM

**Q.** How did the Emax at 30 µM turn out when Cc1cc(C#N)cnc1N1CCc2ncc(Nc3cc(F)ccc3F)cc2C1 [compound 110, 6-[3-(2,5-difluoroanilino)-7,8-dihydro-5H-1,6-naphthyridin-6-yl]-5-methyl-pyridine-3-carbonitrile] was run?
**A.** 95%

**Q.** And the EC50?
**A.** 167 nM

**Q.** Which results are given for Cc1cc(C#N)cnc1N1CCc2ncc(N3CCCn4nc(C(F)(F)F)cc43)cc2C1 [Example 412, 5-methyl-6-(3-(2-(trifluoromethyl)-6,7-dihydropyrazolo[1,5-a]pyrimidin-4(5H)-yl)-7,8-dihydro-1,6-naphthyridin-6(5H)-yl)nicotinonitrile]?
**A.** Emax at 30 µM: 62%; EC50: 306 nM

**Q.** Cc1cc(C(=O)NCc2nc3ccccc3s2)cnc1N1CCc2ncc(-c3cn(C)nc3C)cc2C1 [Example 453, N-(benzo[d]thiazol-2-ylmethyl)-6-(3-(1,3-dimethyl-1H-pyrazol-4-yl)-7,8-dihydro-1,6-naphthyridin-6(5H)-yl)-5-methylnicotinamide] was tested. Which Emax at 30 µM did it give?
**A.** 92%

**Q.** And the EC50?
**A.** 828 nM

**Q.** Which results are given for Cc1nc(C)c(C)c(N2CCc3ncc(-c4ccc(F)nc4)cc3C2)n1 [compound 229, 3-(6-fluoropyridin-3-yl)-6-(2,5,6-trimethylpyrimidin-4-yl)-5,6,7,8-tetrahydro-1,6-naphthyridine]?
**A.** Emax at 30 µM: 59%; EC50: 332 nM

**Q.** Which results are given for Cc1ccc(-c2cnc3c(c2)CN(c2nnc(C#N)c(C)c2C)CC3)cn1 [Example 298, 4,5-dimethyl-6-(3-(6-methylpyridin-3-yl)-7,8-dihydro-1,6-naphthyridin-6(5H)-yl)pyridazine-3-carbonitrile]?
**A.** Emax at 30 µM: 93%; EC50: 530 nM

**Q.** With CCn1cc(-c2cnc3c(c2)CN(c2ncc(C#N)cc2C)CC3)cn1 [compound 105, 6-[3-(1-ethylpyrazol-4-yl)-7,8-dihydro-5H-1,6-naphthyridin-6-yl]-5-methyl-pyridine-3-carbonitrile] as the molecule, how does the Emax at 30 µM read?
**A.** 98%

**Q.** And the EC50?
**A.** 263 nM

**Q.** For Cc1cc(C(=O)NCc2ccc(C(F)(F)F)cn2)cnc1N1CCc2ncccc2C1 [compound 144, 6-(7,8-dihydro-5H-1,6-naphthyridin-6-yl)-5-methyl-N-[[5-(trifluoromethyl)-2-pyridyl]methyl]pyridine-3-carboxamide], which Emax at 30 µM is on record?
**A.** 61%

**Q.** And the EC50?
**A.** 6090 nM

**Q.** Which Emax at 30 µM does the source give for Cc1cc(C(=O)NCc2cccc(F)c2)cnc1N1CCc2ncccc2C1 [compound 159, 6-(7,8-dihydro-5H-1,6-naphthyridin-6-yl)-N-[(3-fluorophenyl)methyl]-5-methyl-pyridine-3-carboxamide] here?
**A.** 69%

**Q.** What about the EC50 of the same molecule?
**A.** 3130 nM

**Q.** Cc1cc(C(=O)NC2CCCCC2)cnc1N1CCc2ncccc2C1 [compound 66, N-cyclohexyl-6-(7,8-dihydro-5H-1,6-naphthyridin-6-yl)-5-methyl-pyridine-3-carboxamide] was tested. Which Emax at 30 µM did it give?
**A.** 47%

**Q.** And the EC50?
**A.** ≥ 10000 nM

**Q.** Which results are given for Cc1cc2n(n1)CCCN2c1cnc2c(c1)CN(c1nnc(C#N)cc1C)CC2 [Example 382, 5-methyl-6-(3-(2-methyl-6,7-dihydropyrazolo[1,5-a]pyrimidin-4(5H)-yl)-7,8-dihydro-1,6-naphthyridin-6(5H)-yl)pyridazine-3-carbonitrile]?
**A.** Emax at 30 µM: 98%; EC50: 74 nM

**Q.** Which Emax at 30 µM does the source give for Cc1cnccc1CNC(=O)c1cc(C)c(N2CCc3ncc(C(F)(F)F)cc3C2)nn1 [Example 494, 5-methyl-N-((3-methylpyridin-4-yl)methyl)-6-(3-(trifluoromethyl)-7,8-dihydro-1,6-naphthyridin-6(5H)-yl)pyridazine-3-carboxamide] here?
**A.** 106%

**Q.** What about the EC50 of the same molecule?
**A.** 36 nM

**Q.** Which Emax at 30 µM does the source give for Cc1cnccc1CNC(=O)c1nnc(N2CCc3ncc(C(F)(F)F)cc3C2)c(C)c1C [Example 464, 4,5-dimethyl-N-((3-methylpyridin-4-yl)methyl)-6-(3-(trifluoromethyl)-7,8-dihydro-1,6-naphthyridin-6(5H)-yl)pyridazine-3-carboxamide] here?
**A.** 101%

**Q.** And the EC50?
**A.** 36 nM

**Q.** With Cc1cc(Nc2cnc3c(c2)CN(c2nnc(C#N)cc2C)CC3)c(F)cn1 [Example 615, 6-(3-((5-fluoro-2-methylpyridin-4-yl)amino)-7,8-dihydro-1,6-naphthyridin-6(5H)-yl)-5-methylpyridazine-3-carbonitrile] as the molecule, how does the Emax at 30 µM read?
**A.** 89%

**Q.** And the EC50?
**A.** 11 nM

**Q.** How did the Emax at 30 µM turn out when Cc1cc(C(=O)N2CC3(COC3)C2)nnc1N1CCc2ncc(-n3cccn3)cc2C1 [Example 571, (6-(3-(1H-pyrazol-1-yl)-7,8-dihydro-1,6-naphthyridin-6(5H)-yl)-5-methylpyridazin-3-yl)(2-oxa-6-azaspiro[3.3]heptan-6-yl)methanone] was run?
**A.** 85%

**Q.** And the EC50?
**A.** 213 nM

**Q.** With Cc1nc(C(F)(F)F)nc(N2CCc3ncc(C(F)(F)F)cc3C2)c1C [compound 252, 6-(5,6-dimethyl-2-(trifluoromethyl)pyrimidin-4-yl)-3-(trifluoromethyl)-5,6,7,8-tetrahydro-1,6-naphthyridine] as the molecule, how does the Emax at 30 µM read?
**A.** 75%

**Q.** What about the EC50 of the same molecule?
**A.** 1030 nM

**Q.** What does the source list for Cc1cnc2c(c1)CN(c1nnc(C(=O)NCc3cncs3)c(C)c1C)CC2 [Example 468, 4,5-dimethyl-6-(3-methyl-7,8-dihydro-1,6-naphthyridin-6(5H)-yl)-N-(thiazol-5-ylmethyl)pyridazine-3-carboxamide]?
**A.** Emax at 30 µM: 108%; EC50: 119 nM

**Q.** Cc1cc(C(=O)NCc2ncc(C(F)(F)F)cn2)cnc1N1CCc2ncccc2C1 [compound 145, 6-(7,8-dihydro-5H-1,6-naphthyridin-6-yl)-5-methyl-N-[[5-(trifluoromethyl)pyrimidin-2-yl]methyl]pyridine-3-carboxamide] was tested. Which Emax at 30 µM did it give?
**A.** 50%

**Q.** And the EC50?
**A.** ≥ 10000 nM

**Q.** Which results are given for Cc1cc(C(=O)NCc2csc3ccccc23)cnc1N1CCc2ncc(C(F)(F)F)cc2C1 [Example 447, N-(benzo[b]thiophen-3-ylmethyl)-5-methyl-6-(3-(trifluoromethyl)-7,8-dihydro-1,6-naphthyridin-6(5H)-yl)nicotinamide]?
**A.** Emax at 30 µM: 97%; EC50: 1640 nM

**Q.** Which results are given for Cc1ccccc1Nc1cnc2c(c1)CN(c1nnc(C#N)c(C)c1C)CC2 [compound 42, 4,5-dimethyl-6-[3-(2-methylanilino)-7,8-dihydro-5H-1,6-naphthyridin-6-yl]pyridazine-3-carbonitrile]?
**A.** Emax at 30 µM: 80%; EC50: 483 nM

**Q.** Which results are given for Cc1cc(C#N)cnc1N1CCc2ncc(OCCOc3ccccc3F)cc2C1 [Example 429, 6-(3-(2-(2-fluorophenoxy)ethoxy)-7,8-dihydro-1,6-naphthyridin-6(5H)-yl)-5-methylnicotinonitrile]?
**A.** Emax at 30 µM: 57%; EC50: 2520 nM

**Q.** Which results are given for Cc1cc(C(=O)NCc2cnn3ccccc23)cnc1N1CCc2ncccc2C1 [compound 69, 6-(7,8-dihydro-5H-1,6-naphthyridin-6-yl)-5-methyl-N-(pyrazolo[1,5-a]pyridin-3-ylmethyl)pyridine-3-carboxamide]?
**A.** Emax at 30 µM: 80%; EC50: 2380 nM

**Q.** With Cc1c(C#N)nnc(N2CCc3ncc(Nc4cccc(Cl)c4F)cc3C2)c1C [Example 36] as the molecule, how does the Emax at 30 µM read?
**A.** 66%

**Q.** What about the EC50 of the same molecule?
**A.** 698 nM
